# Test results from patent US20150105252A1, “SUBSTITUTED PYRAZOLES AS HERBICIDES” (E I DU PONT DE NEMOURS AND COMPANY, priority 2013, published 2015).
# Key:
# lambsquarters = assay: Test C preemergence; assay type: in vivo, Chenopodium album; details: preemergence; for Plant response rating, Lambsquarters: 125 g ai/ha, scale 0 to 100, 0 = no effect, 100 = complete control
# Method in brief: (§1)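 Scores of 0 (no effect) to 100 (complete control) were assigned by eye after 13–15 days, comparing treated pots with controls. Soil-applied (preemergence) treatments went onto seeds in loam and sand; foliar (postemergence) treatments onto 1- to 4-leaf plants in peat medium.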
# rice = assay: Test B flood; assay type: in vivo, Oryza sativa; details: 250 g ai/ha, visual rating on 0 to 100 scale (0 no effect, 100 complete control), 13 to 15 days
# Method in brief: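 Greenhouse assay lasting 13 to 15 days. Treatment was into water flooding pots 3 cm deep, at the 2-leaf stage, with that level sustained afterwards. Scores compare treated with control plants visually, 100 denoting complete control and 0 no effect; a dash marks no test result.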
# nutsedge, yellow = assay: Test C preemergence; assay type: in vivo, Cyperus esculentus; details: preemergence; for Plant response rating, Nutsedge, Yellow: 125 g ai/ha, scale 0 to 100, 0 = no effect, 100 = complete control
# Method in brief: as §1
# velvetleaf [1] = assay: Test C postemergence; assay type: in vivo, Abutilon theophrasti; details: postemergence, 250 g ai/ha; scale 0 to 100 (0 no effect, 100 complete control)
# Method in brief: as §1
# foxtail, giant [2] = assay: Test A postemergence; assay type: in vivo, Setaria faberii
# Method in brief: (§2)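 Visual injury rating, 0–100 (0 no effect, 100 complete control), vs untreated controls ~10 days after treatment in greenhouse. Pre: directed soil spray on seeded loam/sand. Post: 2–10 cm plants, 1–2 leaf stage. Formulation: non-phytotoxic solvent mix + surfactant.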
# barnyardgrass = assay: Test C preemergence; assay type: in vivo, Echinochloa crus-galli; details: preemergence; for Plant response rating, Barnyardgrass: 125 g ai/ha, scale 0 to 100, 0 = no effect, 100 = complete control
# Method in brief: as §1
# morningglory = assay: Test A postemergence; assay type: in vivo, Ipomoea spp.; details: Postemergence
# Method in brief: as §2
# velvetleaf [3] = assay: Test A preemergence; assay type: in vivo, Abutilon theophrasti; details: preemergence; for Velvetleaf plant response rating (0 to 100 scale): 125 g ai/ha, visual injury approx. 10 days after treatment; for Velvetleaf plant response rating: 500 g ai/ha, visual injury after approx. 10 days, 0 to 100 scale (0 no effect, 100 complete control)
# Method in brief: as §2
# foxtail, giant [4] = assay: Test A preemergence; assay type: in vivo, Setaria faberii; details: preemergence; for Foxtail, Giant plant response rating (0 to 100 scale): 125 g ai/ha, visual injury approx. 10 days after treatment; for Foxtail, Giant plant response rating: 500 g ai/ha, visual injury after approx. 10 days, 0 to 100 scale (0 no effect, 100 complete control)
# Method in brief: as §2
# waterhemp = assay: Test C preemergence; assay type: in vivo, Amaranthus rudis; details: preemergence; for Plant response rating, Waterhemp: 125 g ai/ha, scale 0 to 100, 0 = no effect, 100 = complete control
# Method in brief: as §1
# crabgrass, large [5] = assay: Test C postemergence; assay type: in vivo, Digitaria sanguinalis; details: for Plant response rating (scale of 0 to 100 where 0 is no effect and 100 is complete control), Crabgrass, Large: Postemergence, 31 g ai/ha, visually evaluated after 13 to 15 days; for Crabgrass, Large plant response rating / Plant response rating, Crabgrass, Large: postemergence; for Crabgrass, Large plant response rating: 62 g ai/ha, scale 0 to 100
# Method in brief: as §1
# crabgrass, large [6] = assay: Test A preemergence; assay type: in vivo, Digitaria sanguinalis; details: preemergence; for Crabgrass, Large plant response rating (0 to 100 scale): 125 g ai/ha, visual injury approx. 10 days after treatment; for Crabgrass, Large plant response rating: 500 g ai/ha, visual injury after approx. 10 days, 0 to 100 scale (0 no effect, 100 complete control)
# Method in brief: as §2
# galium = assay: Test C postemergence; assay type: in vivo, Galium aparine; details: for Plant response rating (scale of 0 to 100 where 0 is no effect and 100 is complete control), Galium: Postemergence, 31 g ai/ha, visually evaluated after 13 to 15 days; for Galium plant response rating / Plant response rating, Galium: postemergence; for Galium plant response rating: 62 g ai/ha, scale 0 to 100
# Method in brief: as §1
# corn = assay: Test C postemergence; assay type: in vivo, Zea mays; details: for Plant response rating (scale of 0 to 100 where 0 is no effect and 100 is complete control), Corn: Postemergence, 31 g ai/ha, visually evaluated after 13 to 15 days; for Corn plant response rating / Plant response rating, Corn: postemergence; for Corn plant response rating: 62 g ai/ha, scale 0 to 100
# Method in brief: as §1
# [7] = 31 g ai/ha, visual rating, scale 0 to 100 (0 no effect, 100 complete control), 13 to 15 days
# [8] = 62 g ai/ha, scale 0 to 100 (0 no effect, 100 complete control), 13 to 15 days
# [9] = 250 g ai/ha, scale 0 to 100, 0 is no effect, 100 is complete control
# [10] = Postemergence, 500 g ai/ha, 0 to 100 scale (0 no effect, 100 complete control)
# [11] = postemergence, 125 g ai/ha, about 10 days, visual rating on 0 to 100 scale (0 no effect, 100 complete control)
# [12] = 125 g ai/ha, 0 to 100 scale, 0 no effect, 100 complete control
# [13] = 500 g ai/ha, 0 to 100 scale (0 no effect, 100 complete control)
# [14] = 250 g ai/ha, scale 0 to 100 (0 no effect, 100 complete control)
# [15] = 125 g ai/ha, scale 0 to 100, 0 no effect, 100 complete control
Compound,Lambsquarters plant response rating (lambsquarters; [7]),Lambsquarters plant response rating (lambsquarters; [8]),"Plant response rating, Lambsquarters (lambsquarters; 13 to 15 days)",Lambsquarters plant response rating (lambsquarters; [9]),"Plant response rating, Rice (rice)","Nutsedge, Yellow plant response rating (nutsedge, yellow; [7])","Nutsedge, Yellow plant response rating (nutsedge, yellow; [8])","Plant response rating, Nutsedge, Yellow (nutsedge, yellow; 13 to 15 days)","Nutsedge, Yellow plant response rating (nutsedge, yellow; [9])","Plant response rating, Velvetleaf (velvetleaf [1])","Foxtail, Giant plant response rating (foxtail, giant [2]; [10])","Foxtail, Giant plant response rating (foxtail, giant [2]; [11])",Barnyardgrass plant response rating (barnyardgrass; [7]),Barnyardgrass plant response rating (barnyardgrass; [8]),"Plant response rating, Barnyardgrass (barnyardgrass; 13 to 15 days)",Barnyardgrass plant response rating (barnyardgrass; [9]),Morningglory plant response rating (morningglory; [12]),Morningglory plant response rating (morningglory; [13]),Velvetleaf plant response rating (0 to 100 scale) (velvetleaf [3]),Velvetleaf plant response rating (velvetleaf [3]),also measured
CCc1cc(C(=O)NCC2CC2)nn1Cc1ccnc(C(F)(F)F)c1 [Compound 199],95,100,100,98,45,30,45,80,85,60,90,90,95,100,100,100,90,100,100,100,"Foxtail, Giant plant response rating (0 to 100 scale) (foxtail, giant [4]): 100; Foxtail, Giant plant response rating (foxtail, giant [4]): 100; Waterhemp plant response rating (waterhemp; [7]): 98; Waterhemp plant response rating (waterhemp; [8]): 100; Plant response rating, Waterhemp (waterhemp; 13 to 15 days): 100; Waterhemp plant response rating (waterhemp; [9]): 100; Plant response rating (scale of 0 to 100 where 0 is no effect and 100 is complete control), Crabgrass, Large (crabgrass, large [5]): 10; Crabgrass, Large plant response rating (crabgrass, large [5]): 10; Plant response rating, Crabgrass, Large (crabgrass, large [5]; [14]): 60; Plant response rating, Crabgrass, Large (crabgrass, large [5]; [15]): 40; Crabgrass, Large plant response rating (0 to 100 scale) (crabgrass, large [6]): 100; Crabgrass, Large plant response rating (crabgrass, large [6]): 100; Plant response rating (scale of 0 to 100 where 0 is no effect and 100 is complete control), Galium (galium): 60; Galium plant response rating (galium): 70; Plant response rating, Galium (galium; [14]): 90; Plant response rating, Galium (galium; [15]): 80; Plant response rating (scale of 0 to 100 where 0 is no effect and 100 is complete control), Corn (corn): 5; Corn plant response rating (corn): 10; Plant response rating, Corn (corn; [14]): 65; Plant response rating, Corn (corn; [15]): 85"
CCc1cc(C(=O)NC2CC2)nn1Cc1ccnc(OCC(F)(F)F)c1 [Compound 200],75,100,100,100,0,20,25,40,60,45,100,100,45,70,90,98,100,100,20,100,"Foxtail, Giant plant response rating (0 to 100 scale) (foxtail, giant [4]): 100; Foxtail, Giant plant response rating (foxtail, giant [4]): 100; Waterhemp plant response rating (waterhemp; [7]): 100; Waterhemp plant response rating (waterhemp; [8]): 100; Plant response rating, Waterhemp (waterhemp; 13 to 15 days): 100; Waterhemp plant response rating (waterhemp; [9]): 100; Plant response rating (scale of 0 to 100 where 0 is no effect and 100 is complete control), Crabgrass, Large (crabgrass, large [5]): 10; Crabgrass, Large plant response rating (crabgrass, large [5]): 10; Plant response rating, Crabgrass, Large (crabgrass, large [5]; [14]): 25; Plant response rating, Crabgrass, Large (crabgrass, large [5]; [15]): 10; Crabgrass, Large plant response rating (0 to 100 scale) (crabgrass, large [6]): 100; Crabgrass, Large plant response rating (crabgrass, large [6]): 100; Plant response rating (scale of 0 to 100 where 0 is no effect and 100 is complete control), Galium (galium): 50; Galium plant response rating (galium): 50; Plant response rating, Galium (galium; [14]): 75; Plant response rating, Galium (galium; [15]): 75; Plant response rating (scale of 0 to 100 where 0 is no effect and 100 is complete control), Corn (corn): 5; Corn plant response rating (corn): 5; Plant response rating, Corn (corn; [14]): 20; Plant response rating, Corn (corn; [15]): 10"
